Test results: patent US20250066370A1, “BICYCLIC TRIAZINE DERIVATIVES FOR THE TREATMENT OF CANCER” (DEUTSCHES KREBSFORSCHUNGSZENTRUM, priority 2022, published 2025)

How the values were obtained:
[1] = system: BRCA1 mRNA expression in MDA-MB-231 cells; assay: qRT-PCR assay: inhibition of BRCA1 mRNA expression in MDA-MB-231 cells; type: cell-based; conditions: Homo sapiens, 24 h exposure, BRCA1 normalised to GAPDH, median, read-out: RTqPCR-MDA-MB-231, IC50 [mol/l], BRCA1 (median)
Protocol: 3. qRT-PCR Assay: BRCA1, ATR, MCL1 in MDA-MB-231, CAL-120
Tissue cultured human MDA-MB-231 human breast cancer cells were plated in 500 microL per well at 200,000 cells/well in a 24 well microtiter plate. After 24 h, the cells were exposed continuously for 24 h to test substances (substances were added with Tecan HP D300 Dispenser). RNA was prepared using Qiagen RNeasy MiniKit (#74106), RNA was quantified using a NanoDrop Equipment, and 600 nano grams of RNA was converted to cDNA using a SuperScript VILO kit (Thermofisher #11755050) followed by qPCR amplification. BRCA1 and ATR gene expression was measured by RT-qPCR and normalised to GAPDH housekeeping gene expression. qPCR primer sets have been purchased from Thermo Fisher Scientific/Applied Biosystems: BRCA1, #Hs 01556193; ATR. #Hs 00992123: GAPDH. #Hs 03929097.

CDK2/CyclinE = CDK2/CyclinE (Homo sapiens (Human), UniProt P24941); assay: CDK2/CycE kinase assay (TR-FRET); type: biochemical; conditions: 2 mM ATP (high ATP); median; read-out: CDK2/CyclinE, 2 mM ATP (high ATP), IC50 - [mol/l] (median)
Source text: CDK2/CycE-inhibitory activity of compounds of the present invention was quantified employing the CDK2/CycE TR-FRET assay as described in the following paragraphs.
Recombinant fusion proteins of GST and human CDK2 and of GST and human CycE, expressed in insect cells (Sf9) and purified by Glutathion-Sepharose affinity chromatography, were purchased from ProQinase GmbH (Freiburg, Germany). As substrate for the kinase reaction biotinylated peptide biotin-Ttds-YISPLKSPYKISEG (C-terminus in amid form) was used which can be purchased e.g. form the company JERINI peptide technologies (Berlin, Germany).
For the assay 50 nanoL of a 100 fold concentrated solution of the test compound in DMSO was pipetted into a black low volume 384 well microtiter plate or a black 1536 well microtiter plate (both Greiner Bio-One, Frickenhausen, Germany), 2 microL of a solution of CDK2/CycE in aqueous assay buffer [50 millimol/L Tris/HCl PH 8.0, 10 millimol/L MgCl2, 1.0 millimol/L dithiothreitol, 0.1 millimol/L sodium ortho-vanadate, 0.01% (v/v) Nonidet-P40 (Sigma)] were added and the mixture was incubated for 15 min at 22° C. to allow pre-binding of the test compounds to the enzyme before the start of the kinase reaction. Then the kinase reaction was started by the addition of 3 microL of a solution of adenosine-tri-phosphate (ATP, 3.33 millimol/L=>final conc. in the 5 microL assay volume is 2 millimol/L) and substrate (1.25 micromol/L=>final conc. in the 5 microL assay volume is 0.75 micromol/L) in assay buffer and the resulting mixture was incubated for a reaction time of 25 min at 22° C. The concentration of CDK2/CycE was adjusted depending of the activity of the enzyme lot and was chosen appropriate to have the assay in the linear range, typical concentrations were in the range of 10 ng/ml. The reaction was stopped by the addition of 3 microL of a solution of TR-FRET detection reagents (0.333 micromol/L streptavidine-XL665 [Cisbio Bioassays, Codolet, France] and 1.67 nanomol/L anti-RB (pSer807/pSer811)-antibody from BD Pharmingen [#558389] and 2 nanomol/L LANCE EU-W1024 labeled anti-mouse IgG antibody [Perkin-Elmer, product no. AD0077, as an alternative a Terbium-cryptate-labeled anti-mouse IgG antibody from Cisbio Bioassays can be used]) in an aqueous EDTA-solution (167 millimol/L EDTA, 0.2% (w/v) bovine serum albumin in 100 millimol/L HEPES pH 7.5).
The resulting mixture was incubated 1 h at 22° C. to allow the formation of complex between the phosphorylated biotinylated peptide and the detection reagents. Subsequently the amount of phosphorylated substrate was evaluated by measurement of the resonance energy transfer from the Eu-chelate to the streptavidine-XL. Therefore, the fluorescence emissions at 620 nm and 665 nm after excitation at 350 nm was measured in a TR-FRET reader, e.g. a Pherastar (BMG Labtechnologies, Offenburg, Germany) or a Viewlux (Perkin-Elmer). The ratio of the emissions at 665 nm and at […] was taken as the measure for the amount of phosphorylated substrate. The data were normalised (enzyme reaction without inhibitor=0% inhibition, all other assay components but no enzyme=100% inhibition).

IC50 (CDK2/CyclinE)	Structure (SMILES)	IC50 [1]
> 20000 nM	FC(F)(F)Oc1ccc(-c2nnc(CNc3nc(N4CCOCC4)nc4c(C(F)(F)F)cnn34)[nH]2)cc1 [Example 5, 2-(morpholin-4-yl)-N-({5-[4-(trifluoromethoxy)phenyl]-4H-1,2,4-triazol-3-yl}methyl)-8-(trifluoromethyl)pyrazolo[1,5-a][1,3,5]triazin-4-amine]	109 nM
9810 nM	FC(F)(F)c1ccc(-c2nnc(CNc3nc(N4CCOCC4)nc4c(Br)cnn34)[nH]2)cc1 [Example 1, 8-bromo-2-(morpholin-4-yl)-N-({5-[4-(trifluoromethyl)phenyl]-4H-1,2,4-triazol-3-yl}methyl)pyrazolo[1,5-a][1,3,5]triazin-4-amine]	514 nM
> 20000 nM	FC(F)(F)Oc1ccc(-c2cnc(CNc3nc(N4CCOCC4)nc4c(C(F)(F)F)cnn34)[nH]2)cc1 [Example 10, 2-(morpholin-4-yl)-N-({5-[4-(trifluoromethoxy)phenyl]-1H-imidazol-2-yl}methyl)-8-(trifluoromethyl)pyrazolo[1,5-a][1,3,5]triazin-4-amine]	37.3 nM
6390 nM	COc1ccc(-c2cnc(CNc3nc(N4CCOCC4)nc4c(C(F)(F)F)cnn34)[nH]2)cn1 [Example 21, N-{[5-(6-methoxypyridin-3-yl)-1H-imidazol-2-yl]methyl}-2-(morpholin-4-yl)-8-(trifluoromethyl)pyrazolo[1,5-a][1,3,5]triazin-4-amine]	98.8 nM
> 20000 nM	FC(F)(F)c1ccc(-c2cnc(CNc3nc(N4CCOCC4)nn4c(C(F)(F)F)cnc34)[nH]2)cn1 [Example 12, 2-(morpholin-4-yl)-7-(trifluoromethyl)-N-({5-[6-(trifluoromethyl)pyridin-3-yl]-1H-imidazol-2-yl}methyl)imidazo[2,1-f][1,2,4]triazin-4-amine]	7.57 nM
2860 nM	Cc1ccc(-c2nnc(CNc3nc(N4CCOCC4)nn4c(C(F)(F)F)cnc34)[nH]2)cn1 [Example 23, N-{[5-(6-methylpyridin-3-yl)-4H-1,2,4-triazol-3-yl]methyl}-2-(morpholin-4-yl)-7-(trifluoromethyl)imidazo[2,1-f][1,2,4]triazin-4-amine]	102 nM
10400 nM	FC(F)(F)Oc1ccc(-c2cnc(CNc3nc(N4CCOCC4)nc4c(Br)cnn34)[nH]2)cc1 [Example 4, 8-bromo-2-(morpholin-4-yl)-N-({5-[4-(trifluoromethoxy)phenyl]-1H-imidazol-2-yl}methyl)pyrazolo[1,5-a][1,3,5]triazin-4-amine]	6.94 nM
11200 nM	FC(F)(F)Oc1ccc(-c2nnc(CNc3nc(N4CCOCC4)nc4c(Br)cnn34)[nH]2)cc1 [Example 2, 8-bromo-2-(morpholin-4-yl)-N-({5-[4-(trifluoromethoxy)phenyl]-4H-1,2,4-triazol-3-yl}methyl)pyrazolo[1,5-a][1,3,5]triazin-4-amine]	272 nM
> 20000 nM	FC(F)(F)Oc1ccc(-c2nnc(CNc3nc(N4CCOCC4)nn4c(C(F)(F)F)cnc34)[nH]2)cn1 [Example 19, 2-(morpholin-4-yl)-N-({5-[6-(trifluoromethoxy)pyridin-3-yl]-4H-1,2,4-triazol-3-yl}methyl)-7-(trifluoromethyl)imidazo[2,1-f][1,2,4]triazin-4-amine]	34.5 nM
> 5710 nM	FC(F)(F)c1ccc(-c2nnc(CNc3nc(N4CCOCC4)nn4c(C(F)(F)F)cnc34)[nH]2)cn1 [Example 20, 2-(morpholin-4-yl)-7-(trifluoromethyl)-N-({5-[6-(trifluoromethyl)pyridin-3-yl]-4H-1,2,4-triazol-3-yl}methyl)imidazo[2,1-f][1,2,4]triazin-4-amine]	53.8 nM
